Data reported in US11492325B2, “Compounds as inhibitors of sodium channels” (Human BioMolecular Research Institute, priority 2016, dated 2022).

How the values were obtained:
[1] = target: Nav1.5 sodium channel transfected into HEK293 cells (Homo sapiens, UniProt Q14524); assay: Patch clamp electrophysiology, peak (INaP) and late (INaL) sodium current in transfected cells
Description: (§1) This provided data to investigate the physiology and action of target compounds on individual ion channels. The assay used standardized protocols for culturing and conducting conventional whole cell recording that have been previously developed for both current and voltage-clamp to characterize action potentials using transfected cells. Briefly, the Nav1.5 sodium channel was transfected into HEK293 cells. […] Briefly, cells were plated on 0.1% gelatin-coated 35-mm plastic Petri dishes. […] Data was reported as IC50 values±STD (Table 1).

[2] = target: Nav1.5 sodium channel, peak current (INaP) (Homo sapiens, UniProt Q14524, form not given); assay: in vitro
Description: as §1

[3] = test system: cardiomyocytes derived from hiPSCs from a LQTS3 patient; details: LQT3 cardiomyocytes
[4] = test system: normal human induced pluripotent stem cell (hiPSC) cardiomyocyte; details: normal hiPSC cardiomyocytes; for WT-Fold Prolongation: APD
[5] = target: hERG potassium channel (IKr) (Homo sapiens, UniProt Q12809); assay: Automated patch clamp, hERG (IKr) expressed in CHO cells; details: for IC50: hERG (IKr) IC50, CHO cells
[6] = test system: cardiomyocytes derived from hiPSCs from a LQTS3 patient; assay: cells; details: Homo sapiens, Cardiomyocyte, read-out: LQT-IC50 (uM)-Shortening
[7] = Metabolism in human hepatic S9
Description: A typical incubation contained rat, mouse, dog or human liver microsomes (0.4-0.5 mg of protein), 100 mM potassium phosphate buffer (pH7.4), 50 μM test compound, an NADPH-generating system consisting of 0.5 mM NADP^+, 0.5 mM glucose-6-phosphate, 1 IU/mL glucose-6-phosphate dehydrogenase, 1 mg/mL diethylenetriaminepentaaceticacid (DETAPAC), and 3 mM MgCl2 in a final incubation volume of 0.25 mL. […] After centrifugation at 3000 rpm for 5 min, the organic fraction was collected, the solvent was removed with a stream of argon and the residue was reconstituted in 125 μL of MeOH and 125 μL H2O, mixed thoroughly, centrifuged at 13,000 rpm for 5 min and analyzed by high performance liquid chromatography. Samples were run on a Hitachi D-7000 HPLC system using a L-7100 analytical pump, L-7400 UV-Visible variable wavelength detector, and L-7600 automatic sample injector. […] Disappearance of the analyte was monitored over time. A plot of the area under the curve for the normalized analyte versus time afforded the half-life values and kapp.
Microsomes contain CYPs and FMO metabolic enzymes. S9 contains soluble enzymes (i.e., aldehyde oxidase, MAO, etc.).

[8] = ratio peak/late IC50, Example 2

Chain of hERG potassium channel (IKr) (Q12809 whole entry): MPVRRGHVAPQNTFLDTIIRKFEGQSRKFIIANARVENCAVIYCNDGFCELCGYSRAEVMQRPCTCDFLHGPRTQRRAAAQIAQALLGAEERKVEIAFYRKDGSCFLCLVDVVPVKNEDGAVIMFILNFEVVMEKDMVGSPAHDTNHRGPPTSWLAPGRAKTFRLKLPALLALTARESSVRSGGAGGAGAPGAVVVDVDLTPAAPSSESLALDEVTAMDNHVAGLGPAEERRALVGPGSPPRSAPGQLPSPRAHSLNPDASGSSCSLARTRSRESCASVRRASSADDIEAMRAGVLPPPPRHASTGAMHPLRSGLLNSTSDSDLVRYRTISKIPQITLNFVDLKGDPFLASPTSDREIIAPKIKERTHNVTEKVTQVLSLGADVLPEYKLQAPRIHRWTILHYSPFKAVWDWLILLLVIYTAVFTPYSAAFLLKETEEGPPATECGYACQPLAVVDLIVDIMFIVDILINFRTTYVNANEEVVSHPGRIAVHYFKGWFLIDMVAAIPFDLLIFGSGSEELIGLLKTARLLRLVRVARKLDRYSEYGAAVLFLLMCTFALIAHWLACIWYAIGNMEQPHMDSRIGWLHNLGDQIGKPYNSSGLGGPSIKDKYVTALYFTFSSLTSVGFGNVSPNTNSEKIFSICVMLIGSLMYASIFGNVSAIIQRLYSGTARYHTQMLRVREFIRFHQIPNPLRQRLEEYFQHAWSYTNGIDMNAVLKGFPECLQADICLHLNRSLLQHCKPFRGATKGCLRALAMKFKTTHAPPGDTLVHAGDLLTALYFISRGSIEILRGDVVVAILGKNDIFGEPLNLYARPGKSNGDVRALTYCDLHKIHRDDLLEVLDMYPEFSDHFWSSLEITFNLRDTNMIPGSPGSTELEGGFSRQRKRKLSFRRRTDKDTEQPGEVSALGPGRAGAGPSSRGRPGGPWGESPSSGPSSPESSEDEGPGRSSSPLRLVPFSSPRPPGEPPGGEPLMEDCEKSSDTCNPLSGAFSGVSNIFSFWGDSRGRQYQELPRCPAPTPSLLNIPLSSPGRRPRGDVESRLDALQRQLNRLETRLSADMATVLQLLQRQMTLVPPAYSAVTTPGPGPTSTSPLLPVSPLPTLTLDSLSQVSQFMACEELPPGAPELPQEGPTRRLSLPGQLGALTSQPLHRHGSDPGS

Compound	DNap/NaL ([1]; ratio peak IC50/late IC50)	DNap/NaL [1, 8]	IC50 ([2]; Peak Na+ (INaP) IC50) [µM]	LQT-Cessation Dose [3]	LQT-Fold Shortening [3]	WT-Fold Prolongation [4]	Cessation of Beating [4]	WT-Prolongation Dose [4]	IC50 [5] [µM]	IC50 ([5]; Example 2) [µM]	DKr/NaL ([5]; ratio hERG IC50/late Na IC50)	DNaP/Kr ([5]; ratio peak Na IC50/hERG IC50)	DKr/NaL ([5]; ratio, Example 2)	DNaP/Kr ([5]; ratio, Example 2)	IC50 [6] [µM]	IC50 [1] [µM]	other results
Cc1ccc(OCC(N)c2ccccc2)c(C)c1.Cl (centres unmarked) [Compound 66]	10.5	10.7	22.1	66 µM	1.192	None	66 µM	None	5.9	5.9	2.8	3.7	2.8	3.7	0.486	–	–
Cc1cccc(C)c1OC[C@H](C)N [(S)-Mexiletine, reference compound]	–	–	–	–	–	–	–	–	–	–	–	–	–	–	–	–	Liver S-9, remaining after 1 hr ([7]; human liver S-9, 1 hr): >95% after 1 hr
CNC(C)COc1c(C)cccc1C (centres unmarked) [Compound 11, 1-(2,6-dimethylphenoxy)-N-methylpropan-2-amine]	3.4	–	124	133 µM	1.112	2.194	–	–	44	–	1.2	2.8	–	–	1.48	36	WT-EAD Dose [4]: 22 µM
Cc1ccccc1OCC(N)c1ccccc1.Cl (stereo in doubt) [(R)-25]	–	–	–	–	–	–	–	–	–	–	–	–	–	–	–	–	Liver S-9 T1/2 ([7]; human, s9): 6.8 h
Cc1cccnc1OCC(O)c1ccccc1 (centres unmarked) [Compound 21]	6.1	6.1	129	None	1.23	None	None	None	100	> 100	4.7	1.3	>4.7	1.3	–	–	–
COCCNC(COc1cc(C(F)(F)F)cc(C(F)(F)F)c1)c1ccccc1.Cl (centres unmarked) [Compound 80]	44.2	44.2	45.1	133 µM	1.636	None	None	None	16.8	16.8	16.5	2.7	16.5	2.7	6.59	–	–
Cc1cccc(C)c1OCC(N)C1CC1 (centres unmarked) [Compound 10]	18.0	–	130	200 µM	1.162	2.262	–	–	30	–	4.1	4.3	–	–	0.8	7.3	WT-EAD Dose [4]: 66 µM
Cc1cc(C)cc(OCC(N)C2CCCCC2)c1.Cl (centres unmarked) [Compound 89]	15.2	15.3	24.3	–	–	–	–	–	4.9	4.9	3.1	5.0	3.1	5.0	–	–	–
Cc1cc(C)cc(OCC(C)N)c1 (centres unmarked) [Compound 55]	9.1	–	154	200 µM	1.232	1.159	None	–	49	–	2.9	3.1	–	–	4.45	17	–
NC(COc1ccccc1C(F)(F)F)c1ccccc1 (centres unmarked) [Compound 27, 1-phenyl-2-(2-(trifluoromethyl)phenoxy)ethanamine]	39.5	–	41.1	66 µM	1.783	None	66 µM	None	37.5	–	36.1	1.1	–	–	> 0.8	1.04	–
Cc1cccc(OCC(N)c2ccccc2)c1C (centres unmarked) [Compound 35, 2-(2,3-dimethylphenoxy)-1-phenylethanamine]	–	10.6	10.9	66 µM	1.406	None	133 µM	None	–	9.2	–	–	8.9	1.2	–	1.03	–
Cc1cccc(C)c1OC[C@@H](C)N [(R)-Mexiletine, reference compound]	–	–	–	–	–	–	–	–	–	–	–	–	–	–	–	–	Liver S-9, remaining after 1 hr ([7]; human liver S-9, 1 hr): >95% after 1 hr
COCCNC(COc1ccccc1C)c1ccccc1.Cl (centres unmarked) [Compound 90]	11.8	11.8	–	133 µM	1.1	None	133 µM	None	–	25.3	–	–	1.32	1.32	–	–	IC50 ([1]; read-out: Late Na+ (INaL) IC50, patch clamp, transfected cells): 2.83 µM; IC50 ([1]; read-out: Late Na+ (INaL) IC50, transfected cells, Example 2): 2.83 µM; IC50 ([1]; read-out: Peak Na+ (INaP) IC50, transfected cells, Example 2): 33.4 µM; IC50 [2]: 33.4 µM
Cc1ccccc1OCC(N)c1ccccc1.Cl (stereo in doubt) [(S)-25]	–	–	–	–	–	–	–	–	–	–	–	–	–	–	–	–	Liver S-9, remaining after 1 hr ([7]; human, s9, 1 h): >95% after 1 hr
Cc1ccccc1OCC(C)N (centres unmarked) [Compound 9, 1-(2-Methylphenoxy)propan-2-amine]	3.1	–	162	None	1.28	2.363	–	–	98	–	1.9	1.7	–	–	0.76	52	WT-EAD Dose [4]: 200 µM
Cc1cccc(C)c1OCC(N)C(C)(C)C (centres unmarked) [Compound 12, 1-(2,6-dimethylphenoxy)-3,3-dimethylbutan-2-amine]	8.3	–	91	22 µM	1.182	>4	–	–	49	–	4.5	1.9	–	–	0.648	11	WT-EAD Dose [4]: 7.4 µM
